Source: patent publication US20090068687A1, “Screening platform for discovery of immunomodulatory activities in traditional medicine” (The Hong Kong Polytechnic University, priority 2004, published 2009)

Legend:
Type in all cases: cell-based, rat
[1] = tested on: TNF-α; test: ELISA of TNF-α secretion from splenocytes with and without Rg1
Protocol: (§1) Rats were placed under deep ether anesthesia and exsanguinated via the abdominal aorta. Spleen was removed by aseptic techniques before washed twice in 10 mL of RPMI-1640 (Gibco, U.S.A.) medium containing 1000 U/mL penicillin-streptomycin (PS) (Gibco, U.S.A.). Spleens were then cut into small pieces before being sucked up and down with a plunger in a plastic syringe. Single cell suspension was prepared and placed into the same medium containing 1000 U/mL PS, and 5% acid citric dextrose. Splenocytes were then isolated by gradient centrifugation by layering the single cell suspension onto Ficoll-Paque Plus gradient (Amersham Bioscience, H.K. Ltd.) and spun at 400 g for 35 minutes at room temperature. The splenocytes-containing fraction was collected. Erythrocytes were lyzed by adding four volumes of ice-cold ammonium chloride solution (pH 7.4) at room temperature for 5 minutes and splenocytes were washed twice in plain medium. […]
(§2) IFN-γ as well as TNF-α ELISA assays were performed using the OptiEIATM rat IFN-γ and TNF-α kits (Pharmigen, U.S.A.). […] After the addition of avidin-HRP conjugate, color was developed by the addition of 2,2-Azin-bis-3-thylbenzthiazoline-6-sulfonic acid and the color change was monitored at an absorbance of 405 nm with a Microplate Reader (Bio-Rad Laboratories, U.S.A.) The amount of INF-γ and TNF-α were calculated by comparing with the standard.

[2] = tested on: IFN-γ; test: ELISA of IFN-γ secretion from splenocytes with and without Rg1
Protocol: as §1, §2

[3] = tested on: IFN-γ; test: Western blotting of IFN-γ secretion in culture medium of Rg1-stimulated splenocytes; conditions: 5 μg/ml Rg1, culture medium, 24 hour
Protocol: as §1, with “collected.” for “collected. Erythrocytes were lyzed by adding four volumes of ice-cold ammonium chloride solution (pH 7.4) at room temperature for 5 minutes and splenocytes were washed twice in plain medium.”
(§3) Supernatants of splenocytes cell culture with and without Rg1 incubation were harvested at different time points and used for the detection of TNF-α and IFN-γ. […] The protein content of the supernatant/lysate was determined by the Bradford method (Bio-Rad Laboratory, U.S.A.). For each analysis, 350 μg of protein was analyzed by a 12.5% reducing SDS-PAGE gel ran at a constant voltage (150V) for 1 hour. […] Positive binding was detected using the SuperSignal West Pico Chemiluminescent Kit (Pierce, U.S.A.) and the exposed X-ray films (Kodak) were scanned with a Molecular Dynamics Densitometer (Bio-Rad Laboratories, U.S.A.).

[4] = tested on: iNOS; test: Western blotting of iNOS expression in splenocyte lysate after Rg1 stimulation; conditions: 5 μg/ml Rg1, splenocyte lysate
Protocol: as §1, with “collected.” for “collected. Erythrocytes were lyzed by adding four volumes of ice-cold ammonium chloride solution (pH 7.4) at room temperature for 5 minutes and splenocytes were washed twice in plain medium.”
as §3

[5] = tested on: TNF-α; test: Western blotting of TNF-α secretion in culture medium of Rg1-stimulated splenocytes; conditions: 5 μg/ml Rg1, culture medium
Protocol: as §1, with “collected.” for “collected. Erythrocytes were lyzed by adding four volumes of ice-cold ammonium chloride solution (pH 7.4) at room temperature for 5 minutes and splenocytes were washed twice in plain medium.”
as §3

[6] = tested on: splenocytes; test: 2-DE (Two-in-one gel) / MALDI-TOF MS analysis of differential protein expression in splenocyte lysates
Protocol: Rats were placed under deep ether anesthesia and exsanguinated via the abdominal aorta. Spleen was removed by aseptic techniques before washed twice in 10 mL of RPMI-1640 (Gibco, U.S.A.) medium containing 1000 U/mL penicillin-streptomycin (PS) (Gibco, U.S.A.). Spleens were then cut into small pieces before being sucked up and down with a plunger in a plastic syringe. Single cell suspension was prepared and placed into the same medium containing 1000 U/mL PS, and 5% acid citric dextrose. Splenocytes were then isolated by gradient centrifugation by layering the single cell suspension onto Ficoll-Paque Plus gradient (Amersham Bioscience, H.K. Ltd.) and spun at 400 g for 35 minutes at room temperature. The splenocytes-containing fraction was collected. Erythrocytes were lyzed by adding four volumes of ice-cold ammonium chloride solution (pH 7.4) at room temperature for 5 minutes and splenocytes were washed twice in plain medium. Lymphocytes were stained with Wright-Giema stain before examination under light microscope. Cell viability and number were examined after trypan blue staining under the light microscope. Splenocytes (1×10^6) were cultured in complete RPMI-1640 medium containing 1000 U/mL PS, supplemented with 2 g/L sodium carbonate. Cells were re-suspended in the same medium with 10% FCS (Gibco, U.S.A.) and subjected to various treatments after 24 hours incubation.
Rg1 (dosage of 5 μg/mL) was added to splenocytes in PBS buffer in 6-well flat-bottomed plates (Nunc Maxisorp, U.S.A.) in a 5% CO2 incubator at 37° C. Samples of conditioned media from the incubation mixture were harvested at varying time points (from 12-72 hours). These samples were kept at −80° C. until use. No sample was kept for more than 2 months. Besides Western Blotting, global protein expression in samples of Rg1 treated splenocytes (at 12 hours and 24 hours intervals) were also performed using 2-DE analysis. Cells incubated with PBS for 24 hours were used as control.
Splenocytes on culture dishes were rinsed once with RPMI-1640 after incubation with or without Rg1. Subsequently, […] trypsin containing 0.2 g/L EDTA was added and allowed to incubate for 3 min. Cells were then collected by centrifugation at 1,000 g for 5 minutes and washed with PBS (pH 7.2) twice. Splenocytes were then lysed with a minimal amount of lysis buffer (usually 200 μl) containing 4% Triton X-100, 9 M urea, and 1 mM PMSF for 10 minutes on ice. The supernatant was collected by centrifugation at 3,000 g for 10 minutes and protein contents were measured by a modified Bradford method using a protein assay kit by Bio-Rad Laboratories, U.S.A. Cell lysates from different animals with the same treatment were pooled together at a protein ratio of 1:1 and was used for 2-DE analysis. 120 μg of splenocytes lysate [in a buffer containing 9M Urea, 2% w/v Triton X-100, 0.5% w/v DDT (Sigma, U.S.A.), 0.4% v/v IPG buffer 4-7 (Amersham Pharmacia Biotech, Uppsala, Sweden) and trace amount of bromophenol blue to a final volume of 300 μl] was used for in-gel sample rehydration.
Samples were applied onto IPG strips pH 4-7 (3×170 mm, Bio-Rad Laboratories, U.S.A.). Rehydration and subsequent isoelectric focusing was performed using either a Protean IEF Cell (Bio-Rad Laboratories, U.S.A.) or an IPGphor (Amersham Biosciences, U.S.A.). Rehydration was performed at room temperature for 16 hour at 50 V in the IPG strip holder covered with low viscosity paraffin oil. Isoelectric focusing was then performed using 500 V (1 hour), 1000 V (1 hour), 4000 V (2 hour) and 8000 V (2 hour) sequentially. Strips were then equilibrated in […] Tris-HCl equilibration buffer, pH 6.8, containing 1% (w/v) DTT (Sigma, U.S.A.), 9M urea, 30% v/v glycerol, 2% w/v SDS and a trace amount of bromophenol blue for 10 minutes. […]

[7] = 5 μg/mL Rg1, ELISA time course 12-72 hours
[8] = 5 μg/mL Rg1, ELISA, versus splenocytes without Rg1
[9] = Rg1 24 hours versus PBS control
[10] = Rg1 treated versus normal sample, Two-in-one gels

Regulation of Alpha-mannosidase II (spot 6) [6, 9]: Up-
Regulation of Cytochrome C oxidase polypeptide IV precursor (spot 2) [6, 9]: Up-
Regulation of DNA polymerase beta (spot 3) [6, 9]: Up-
Regulation of Guanine nucleotide-binding protein G (spot 4) [6, 9]: Up-
SMILES: CC(C)=CCC[C@](C)(O[C@@H]1O[C@H](CO)[C@@H](O)[C@H](O)[C@H]1O)[C@H]1CC[C@]2(C)[C@@H]1[C@H](O)C[C@@H]1[C@@]3(C)CC[C@H](O)C(C)(C)[C@@H]3[C@@H](O[C@@H]3O[C@H](CO)[C@@H](O)[C@H](O)[C@H]3O)C[C@]12C [Rg1]
incubation time at which TNF-α level reached a maximum [1, 7]: 24 h
increase in quantity of TNF-α after Rg1 induction [1, 8]: more than 1000 fold
incubation time at which IFN-γ level reached a maximum [2, 7]: 24 h
increase in quantity of IFN-γ after Rg1 induction [2, 8]: more than 1000 fold
IFN-γ detection by Western blotting [3]: detected
iNOS detection by Western blotting ([4]; 12 hour): detected
iNOS detection by Western blotting ([4]; 24 hour): detected
TNF-α detection by Western blotting ([5]; 24 hour): detected
TNF-α detection by Western blotting ([5]; 48 hour): detected
number of protein spots detected on the gel half run with the Rg1 treated sample ([6]; 24 hours incubation with Rg1, about 102 spots in normal sample): 122
Regulation of Homeotic protein LH-2 (spot 1) [6, 9]: Up-
Regulation of T-cell surface glycoprotein CD5 precursor (spot 5) [6, 9]: Up-
number of protein spots down-regulated [6, 10]: 38
number of proteins up-regulated [6, 10]: 87
number of spots without significant apparent changes [6, 10]: 38
